For assay [1], the target named is T1, Glucocorticoid receptor (Homo sapiens, UniProt P04150).
T1 sequence (P04150 whole entry): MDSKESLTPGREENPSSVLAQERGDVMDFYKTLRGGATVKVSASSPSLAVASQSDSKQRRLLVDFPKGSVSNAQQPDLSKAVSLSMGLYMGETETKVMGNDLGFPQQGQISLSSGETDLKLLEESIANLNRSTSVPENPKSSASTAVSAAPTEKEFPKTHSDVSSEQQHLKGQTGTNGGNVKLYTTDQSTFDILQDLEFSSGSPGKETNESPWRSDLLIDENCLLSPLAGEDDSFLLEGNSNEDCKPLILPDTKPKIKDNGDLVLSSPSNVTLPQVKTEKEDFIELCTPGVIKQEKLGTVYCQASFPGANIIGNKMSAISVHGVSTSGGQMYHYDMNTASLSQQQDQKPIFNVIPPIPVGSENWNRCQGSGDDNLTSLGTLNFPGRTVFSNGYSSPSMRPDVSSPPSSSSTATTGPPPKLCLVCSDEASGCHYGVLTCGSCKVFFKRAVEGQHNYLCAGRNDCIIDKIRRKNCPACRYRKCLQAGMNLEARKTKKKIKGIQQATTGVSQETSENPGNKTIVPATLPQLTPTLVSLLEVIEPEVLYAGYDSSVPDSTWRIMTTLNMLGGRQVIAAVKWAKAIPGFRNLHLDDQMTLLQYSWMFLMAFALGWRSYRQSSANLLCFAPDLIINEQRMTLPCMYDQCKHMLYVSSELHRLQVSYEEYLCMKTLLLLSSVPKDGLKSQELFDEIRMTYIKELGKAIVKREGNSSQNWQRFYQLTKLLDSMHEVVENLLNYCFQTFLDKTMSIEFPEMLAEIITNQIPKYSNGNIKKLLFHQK
Briefly: Displacement of FITC-dexamethasone from human recombinant glucocorticoid receptor alpha by fluorescence polarization assay.

Assay [2] deals with T1, Glucocorticoid receptor. Briefly: Transrepression activity at GR in PMA-stimulated human A549 cells assessed as inhibition of AP1 response element-induced luciferase reporter gene activity. The format is cell-based.
For assay [3], the target named is T1, Glucocorticoid receptor. Put plainly: Transrepression activity at GR in IL-1-beta-stimulated human A549 cells assessed as inhibition of NF-kappaB-dependent E-selectin transcription by luciferase reporter gene assay. In kind it is cell-based. (In general: A reporter such as luciferase makes a cellular process visible.)
Assay [4] concerns the target T1, Glucocorticoid receptor. Briefly: Agonist activity at GR ligand binding domain expressed in human NP1 cells assessed as glucocorticoid response element transactivation by GAL4 luciferase reporter gene assay. In kind it is cell-based.
Assay [5] has as its target T2, Mineralocorticoid receptor (Homo sapiens) (UniProt P08235).
T2 sequence (whole entry): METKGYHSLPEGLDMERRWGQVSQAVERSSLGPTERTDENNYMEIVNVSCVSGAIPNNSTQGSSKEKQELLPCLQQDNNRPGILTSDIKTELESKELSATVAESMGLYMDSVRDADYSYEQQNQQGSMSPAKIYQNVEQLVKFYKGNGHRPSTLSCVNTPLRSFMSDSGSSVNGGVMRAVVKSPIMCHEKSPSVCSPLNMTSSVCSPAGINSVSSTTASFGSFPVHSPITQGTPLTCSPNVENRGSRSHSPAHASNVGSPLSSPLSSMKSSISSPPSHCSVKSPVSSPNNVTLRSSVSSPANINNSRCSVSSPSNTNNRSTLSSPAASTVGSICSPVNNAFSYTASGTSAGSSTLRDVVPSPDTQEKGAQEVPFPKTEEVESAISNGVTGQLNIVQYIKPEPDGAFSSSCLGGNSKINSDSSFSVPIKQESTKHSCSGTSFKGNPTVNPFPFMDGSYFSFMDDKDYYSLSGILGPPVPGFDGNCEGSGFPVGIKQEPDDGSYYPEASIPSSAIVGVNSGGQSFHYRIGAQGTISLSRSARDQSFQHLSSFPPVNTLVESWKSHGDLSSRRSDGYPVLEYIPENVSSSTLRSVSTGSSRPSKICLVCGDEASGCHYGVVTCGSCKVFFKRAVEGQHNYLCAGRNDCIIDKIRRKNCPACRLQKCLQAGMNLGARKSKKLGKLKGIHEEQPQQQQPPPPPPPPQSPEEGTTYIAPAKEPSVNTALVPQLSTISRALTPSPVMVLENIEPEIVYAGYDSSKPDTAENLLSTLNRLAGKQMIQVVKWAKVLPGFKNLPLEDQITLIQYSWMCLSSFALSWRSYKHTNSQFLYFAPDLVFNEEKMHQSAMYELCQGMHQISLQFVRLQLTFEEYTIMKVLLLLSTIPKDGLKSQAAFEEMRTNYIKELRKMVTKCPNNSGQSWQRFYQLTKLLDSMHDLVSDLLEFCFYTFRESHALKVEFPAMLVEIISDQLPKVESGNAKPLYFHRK
Put plainly: Antagonist activity at mineralocorticoid receptor in human A549 cells assessed as inhibition of 1.25 nM aldosterone-induced effect at 0.1 uM. The format is functional, cell-based.

Drawing on ChEMBL document CHEMBL1138590, “Discovery of novel dihydro-9,10-ethano-anthracene carboxamides as glucocorticoid receptor modulators” (Bioorg Med Chem Lett, 2009), this text covers Ki, EC50 and inhibition for 24 molecules.

By Ki is commonly meant the dissociation constant of the complex between target and ligand, obtained from inhibition or displacement. The term EC50 denotes the concentration giving half of the maximal effect. With `CCC1(C(=O)Nc2nccs2)CC2c3ccccc3C1c1ccccc12` (stereo not given), on Glucocorticoid receptor [1], the Ki was 3.9 nM. In addition, the concentration giving a half-maximal response (EC50) on Glucocorticoid receptor [2] is more than 2500 nM.
Regarding `CC1(C(=O)Nc2nccs2)CC2(C#N)c3ccccc3C1c1ccccc12` (stereo not given), the half-maximal effective concentration (EC50) on Glucocorticoid receptor [2] is 331 nM; at Glucocorticoid receptor [3], 426 nM; at Glucocorticoid receptor [4] it was more than 10 µM.
On to `C[C@]1(C(=O)Nc2nccs2)CC2(C#N)c3ccccc3C1c1ccccc12`, for which the inhibitory constant (Ki) on Glucocorticoid receptor [1] came out at 37.8 nM. The values for the EC50 at Glucocorticoid receptor [2], on Glucocorticoid receptor [3] and at Glucocorticoid receptor [4] were 837 nM, more than 5000 nM and more than 10 µM, respectively.
Take `O=C(Nc1nccs1)C1(CCO)CC2c3ccccc3C1c1ccccc12` (stereo not given): on Glucocorticoid receptor [1], the Ki was 303 nM. Further, on Glucocorticoid receptor [2], the half-maximal effective concentration (EC50) was more than 5000 nM.
Take `CC12CC(C)(C(=O)Nc3nncs3)C(c3ccccc31)c1ccccc12` (stereo in doubt; 18): the 50% effective concentration (EC50) on Glucocorticoid receptor [2] was 16.9 nM; on Glucocorticoid receptor [3], 5.2 nM; at Glucocorticoid receptor [4], more than 10 µM.
Consider `Cc1cnc(NC(=O)C2(C)CC3c4ccccc4C2c2ccccc23)s1` (single isomer, unassigned; isomer B), for which, on Glucocorticoid receptor [1], the inhibitory constant (Ki) came out at 187 nM. In addition, on Glucocorticoid receptor [2], the EC50 was found to be 972 nM.
Turning to `Cc1csc(NC(=O)C2(C)CC3c4ccccc4C2c2ccccc23)n1` (stereo not given), at Glucocorticoid receptor [1], the inhibition constant (Ki) came out at 8.7 nM. Moreover, the EC50 at Glucocorticoid receptor [2] is more than 5000 nM.
On to `CC1(C(=O)Nc2nccs2)CC2(Cl)c3ccccc3C1c1ccccc12` (stereo not given), for which the EC50 was found to be 229 nM on Glucocorticoid receptor [2], 12.3 nM on Glucocorticoid receptor [3] and 0.322 µM on Glucocorticoid receptor [4].
In the case of `Cc1cnc(NC(=O)C2(C)CC3c4ccccc4C2c2ccccc23)s1` (stereo in doubt; 3), the inhibition constant (Ki) at Glucocorticoid receptor [1] came to 12.7 nM. For the same molecule, the EC50 at Glucocorticoid receptor [2] came to 610 nM.
In the case of `CC1(C(=O)Nc2ncc[nH]2)CC2c3ccccc3C1c1ccccc12` (stereo not given), the inhibitory constant (Ki) at Glucocorticoid receptor [1] turned out to be 92.6 nM. For the same molecule, the EC50 at Glucocorticoid receptor [2] is more than 5000 nM.
For the molecule `CC12CC(C)(C(=O)Nc3nccs3)C(c3ccccc31)c1ccccc12` (single isomer, unassigned; isomer B), the Ki on Glucocorticoid receptor [1] was 67.8 nM. For the same molecule, the EC50 was 800 nM at Glucocorticoid receptor [2], more than 5000 nM at Glucocorticoid receptor [3] and more than 10 µM on Glucocorticoid receptor [4].
For `CC1(C(=O)Nc2nccs2)CC2([N+](=O)[O-])c3ccccc3C1c1ccccc12` (stereo not given), the results for the EC50 at Glucocorticoid receptor [2], on Glucocorticoid receptor [3] and on Glucocorticoid receptor [4] were 1070 nM, more than 5000 nM and more than 10 µM, respectively.
In the same order, the values of `CC12CC(C)(C(=O)Nc3nccs3)C(c3ccccc31)c1ccccc12` (stereo in doubt; 17) are 14.7 nM, 8.3 nM and 0.121 µM.
Taken in the same sequence, the figures for `CC1(C(=O)Nc2nccs2)CC2c3ccccc3C1([N+](=O)[O-])c1ccccc12` (stereo not given) were 1160 nM, more than 5000 nM and more than 10 µM.
One may read the inhibition as how much of the control response was suppressed. On to `CC12CC(C)(C(=O)Nc3nccs3)C(c3ccccc31)c1ccccc12` (stereo in doubt; 17a), for which the inhibition in assay [5] was 49%.
On to `CC12CC(C)(C(=O)Nc3nncs3)C(c3ccccc31)c1ccccc12` (stereo in doubt; 18b), for which the inhibition constant Ki on Glucocorticoid receptor [1] amounted to 49.7 nM. Besides, the half-maximal effective concentration (EC50) was 3830 nM at Glucocorticoid receptor [2], 152 nM on Glucocorticoid receptor [3] and more than 2.5 µM on Glucocorticoid receptor [4].
In the case of `C[C@]1(C(=O)Nc2nccs2)CC2c3ccccc3C1c1ccccc12`, the Ki on Glucocorticoid receptor [1] came out at 26.2 nM. In addition, at Glucocorticoid receptor [2], the EC50 came out at 544 nM.
Take `CC12CC(C)(C(=O)Nc3nncs3)C(c3ccccc31)c1ccccc12` (single isomer, unassigned; isomer A): the inhibition in assay [5] came to 53%.
On to `CC1(C(=O)Nc2nccs2)CC2c3ccccc3C1(C#N)c1ccccc12` (stereo not given), for which the EC50 was 874 nM at Glucocorticoid receptor [2], 678 nM at Glucocorticoid receptor [3] and more than 10 µM on Glucocorticoid receptor [4].
Take `CN(C(=O)C1(C)CC2c3ccccc3C1c1ccccc12)c1nccs1` (stereo not given): the inhibition constant (Ki) at Glucocorticoid receptor [1] came to 82.5 nM. Moreover, the 50% effective concentration (EC50) at Glucocorticoid receptor [2] turned out to be 1240 nM.
With `Cc1nc(NC(=O)C2(C)CC3c4ccccc4C2c2ccccc23)sc1C` (stereo not given), the inhibition constant Ki on Glucocorticoid receptor [1] turned out to be 22.6 nM. Moreover, the half-maximal effective concentration (EC50) at Glucocorticoid receptor [2] came to 923 nM.
Taken in the same sequence, the figures for `CC1(C(=O)Nc2nncs2)CC2c3ccccc3C1c1ccccc12` (stereo not given) were 5.4 nM and 295 nM.
In the case of `CC1(C(=O)Nc2nccs2)CC2(Br)c3ccccc3C1c1ccccc12` (stereo not given), the 50% effective concentration (EC50) stood at 119 nM on Glucocorticoid receptor [2], 9.9 nM at Glucocorticoid receptor [3] and 0.175 µM at Glucocorticoid receptor [4].
`CC1(C(=O)Nc2ccc([N+](=O)[O-])cc2O)CC2c3ccccc3C1c1ccccc12` (stereo not given): the inhibitory constant (Ki) at Glucocorticoid receptor [1] was found to be 158 nM. Besides, at Glucocorticoid receptor [2], the concentration giving a half-maximal response (EC50) is more than 5000 nM.
